Test results: patent publication US20240246935A1 (Plexium, Inc., priority 2021, published 2024)

Assays:
[1] = molecular target: GSPT1 (Homo sapiens (Human), UniProt P15170+Q96SW2); experiment: GSPT1 reporter degradation assay (HEK293 hGSPT1 HiBiT-tagged cells); format: cell-based; settings: 24 hour incubation
Experimental: HEK293_hGSPT1_HiBiT-tagged cells were generated using CRISPR-Cas12a technology. Briefly, ˜400,000 HEK293 cells were transiently co-transfected with precomplexed ribonuclear proteins (RNPs) consisting of 80 pmol of crRNA (IDT), 62 pmol of Cas12a protein (IDT), 3 μg of ssODN donor (IDT; AltR® modifications), 78 pmol of electroporation enhancer (IDT), and 200 ng of pMaxGFP (Lonza). The transfection was performed via nucleofection (Lonza, 4D-Nucleofector X-unit) using solution P3 and program CM-130 in a (20 μL) cuvette. Five days post-nucleofection, cells were single-cell-sorted for GFP+(transfected) cells by FACs in 96-well plates and clonally selected. Clones were screened and verified for the desired modification via targeted deep sequencing using gene-specific primers with partial Illumina adapter overhangs as previously described. In brief, clonal cell pellets were harvested, lysed, and used to generate gene-specific amplicons with partial Illumina adapters in PCR #1. Amplicons were indexed in PCR #2 and pooled with other targeted amplicons for other loci to create sequence diversity. Additionally, 10% PhiX sequencing control V3 (Illumina) was added to the pooled amplicon library prior to running the sample on a Miseq Sequencer System (Illumina) to generate paired 2×250 bp reads. Samples were demultiplexed using the index sequences, fastq files were generated, and NGS analysis was performed using CRIS.py. Final clones were authenticated using the PowerPlex fusion system (Promega) and tested negative for mycoplasma by the MycoAlert™Plus mycoplasma detection kit (Lonza).
Editing construct sequences and screening primers are outlined below (sequence from 5′ to 3′). hGSPT1Cas12acrRNA, CAGE635.GSPT1.g1: […] (SEQ ID NO: 4); CAGE635.g1.anti.ssODN: ttcctcacagtattgtgcagggtcatcaagaaaatgctta[…] CAGCCGCTCACgtcCttctctggaaccagtttcagaacttttccaattgcaatggtcttacctagaaatgaaattttaa (HiBiT tag and silent blocking modifications to prevent Cas12a recutting after integration are in upper case) (SEQ ID NO: 5); CAGE635.hGSPT1.DS.F: […] (SEQ ID NO: 6); CAGE635.hGSPT1.DS.R: GTGAA GTAGGCTTCTGCAGTC (SEQ ID NO: 7).
The GSPT1 degradation assay was carried out by harvesting the HEK 293T reporter cell lines and resuspending the cells in media formulated for reduced background fluorescence (FluoroBrite; Thermo Fisher). The respective cell lines were seeded at a density of 8,000 cells/well into white-opaque 384-well optical grade assay tissue culture plates (Greiner 781080-20). The cells were incubated overnight at 37° C. to allow for attachment to the assay plate. Dilutions of the compounds were prepared in DMSO from 10 mM compound stocks. Test compounds were added in a 10-point dilution series (typically 10 μM to […]) using a TECAN D300e Digital Dispenser with an upper limit of 0.5% final DMSO. Plates were centrifuged at 320×g for 2 minutes at room temperature, and subsequently incubated at 37° C.
After 24 hour incubation with the compounds, the plates were allowed to cool to room temperature for 10 minutes. 30 μL of HiBiT lytic buffer+1:50 HiBiT substrate Solution were added to each well. Plates were centrifuged at 320×g for 2 minutes at room temperature and then incubated with shaking at room temperature for 10 minutes covered with foil. Plates were read on a CLARIOstar microplate reader (BMG LabTech), measuring at 450 nm (donor emission) and 610 nm or 630 nm (acceptor emission). The DC50 values were determined by regression to best fit four-parameter logistic curves using GraphPad Prism.

[2] = test system: IKZF2 (Helios); experiment: IKZF2 reporter degradation assay (HEK 293T IKZF2-mNeonGreen reporter cell line); format: cell-based, human; settings: 1 μM compound, 24 hour incubation, HEK 293T IKZF2-mNeonGreen reporter
Summary of the method: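 HEK 293T lines stably expressing each IKZF-GGGGS×3-mNeonGreen-P2A-mScarlet reporter, 4000 cells/well in FluoroBrite medium, treated with compound (≤0.5% DMSO) for 24 h at 37 °C. Imaging measured percent mNeonGreen-positive cells, with mScarlet used for segmentation; DC50 from four-parameter logistic fit.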

GSPT1, sequence (P15170 whole entry): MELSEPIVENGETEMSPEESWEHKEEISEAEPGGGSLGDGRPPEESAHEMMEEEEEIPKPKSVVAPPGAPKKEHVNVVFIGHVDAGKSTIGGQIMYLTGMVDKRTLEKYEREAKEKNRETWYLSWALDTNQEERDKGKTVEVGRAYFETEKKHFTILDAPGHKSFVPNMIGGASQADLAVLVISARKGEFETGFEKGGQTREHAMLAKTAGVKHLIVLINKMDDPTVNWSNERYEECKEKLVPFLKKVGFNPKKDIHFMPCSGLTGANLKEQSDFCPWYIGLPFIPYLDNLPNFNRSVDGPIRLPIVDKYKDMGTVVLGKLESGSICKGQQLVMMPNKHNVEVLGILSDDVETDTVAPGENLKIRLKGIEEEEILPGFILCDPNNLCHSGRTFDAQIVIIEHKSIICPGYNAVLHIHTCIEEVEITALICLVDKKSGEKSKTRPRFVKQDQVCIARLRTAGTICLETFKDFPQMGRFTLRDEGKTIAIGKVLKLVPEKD
GSPT1, sequence (Q96SW2 whole entry): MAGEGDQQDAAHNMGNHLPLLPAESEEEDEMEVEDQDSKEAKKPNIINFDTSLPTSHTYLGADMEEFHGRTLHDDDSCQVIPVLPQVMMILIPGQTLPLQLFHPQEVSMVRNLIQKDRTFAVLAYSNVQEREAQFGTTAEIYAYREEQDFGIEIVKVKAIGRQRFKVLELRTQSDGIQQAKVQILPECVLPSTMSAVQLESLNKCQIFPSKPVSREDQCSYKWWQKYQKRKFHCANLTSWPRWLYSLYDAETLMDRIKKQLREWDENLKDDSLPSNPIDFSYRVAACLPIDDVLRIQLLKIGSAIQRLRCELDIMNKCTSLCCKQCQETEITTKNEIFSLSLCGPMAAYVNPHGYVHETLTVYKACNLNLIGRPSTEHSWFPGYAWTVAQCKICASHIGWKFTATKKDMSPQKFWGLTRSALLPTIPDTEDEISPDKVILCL
GSPT1, sequence (Q16531 whole entry partner): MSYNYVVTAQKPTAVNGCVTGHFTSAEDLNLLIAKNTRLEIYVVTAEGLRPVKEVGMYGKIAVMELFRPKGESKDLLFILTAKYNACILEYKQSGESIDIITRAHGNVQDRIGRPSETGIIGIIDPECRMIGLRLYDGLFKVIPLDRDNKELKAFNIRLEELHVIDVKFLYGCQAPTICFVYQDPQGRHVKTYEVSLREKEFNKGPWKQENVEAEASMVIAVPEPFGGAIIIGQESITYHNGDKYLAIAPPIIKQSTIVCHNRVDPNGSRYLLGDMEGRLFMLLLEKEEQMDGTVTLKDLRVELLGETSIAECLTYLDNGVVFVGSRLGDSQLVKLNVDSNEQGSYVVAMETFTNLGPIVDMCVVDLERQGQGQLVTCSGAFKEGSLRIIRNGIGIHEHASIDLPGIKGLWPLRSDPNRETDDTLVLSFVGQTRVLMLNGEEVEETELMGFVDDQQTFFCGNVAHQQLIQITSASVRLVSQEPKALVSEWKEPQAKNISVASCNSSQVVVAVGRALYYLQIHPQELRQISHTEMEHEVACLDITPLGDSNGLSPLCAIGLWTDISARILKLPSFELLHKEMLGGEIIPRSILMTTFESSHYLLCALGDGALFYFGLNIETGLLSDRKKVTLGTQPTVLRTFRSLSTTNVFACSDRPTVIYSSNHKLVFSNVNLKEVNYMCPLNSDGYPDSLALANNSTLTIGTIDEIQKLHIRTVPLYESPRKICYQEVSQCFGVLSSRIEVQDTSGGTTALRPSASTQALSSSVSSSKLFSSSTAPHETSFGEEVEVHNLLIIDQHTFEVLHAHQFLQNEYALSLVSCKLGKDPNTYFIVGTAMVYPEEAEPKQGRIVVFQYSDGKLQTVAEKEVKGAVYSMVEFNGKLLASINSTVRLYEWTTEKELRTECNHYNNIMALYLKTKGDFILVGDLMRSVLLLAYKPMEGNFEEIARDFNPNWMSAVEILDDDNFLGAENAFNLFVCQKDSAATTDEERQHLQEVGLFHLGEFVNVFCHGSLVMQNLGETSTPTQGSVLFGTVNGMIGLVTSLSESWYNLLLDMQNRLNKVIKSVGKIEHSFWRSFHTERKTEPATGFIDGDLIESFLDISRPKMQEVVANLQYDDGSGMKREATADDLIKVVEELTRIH

| SMILES | DC50 [1] [µM] | IKZF2 % Degradation @ 1 μM [2] [%] |
| --- | --- | --- |
| O=C1CCC(N2Cc3cc(O[C@H]4CCCC[C@@H]4N4CC(c5cccc(F)c5F)C4)ccc3C2=O)C(=O)N1 (stereo partly drawn) [Compound 64, 3-(5-(((1S,2S)-2-(3-(2,3-difluorophenyl)azetidin-1-yl)cyclohexyl)oxy)-1-oxoisoindolin-2-yl)piperidine-2,6-dione] | > 30 | 76.3 |
| O=C1CCC(N2Cc3cc(O[C@H]4CCCCC[C@@H]4N4CC(c5ccccc5)C4)ccc3C2=O)C(=O)N1 (stereo partly drawn) [Compound 131, 3-(1-oxo-5-(((1S,2S)-2-(3-phenylazetidin-1-yl)cycloheptyl)oxy)isoindolin-2-yl)piperidine-2,6-dione] | > 30 | 92.3 |
| O=C1CCC(N2Cc3c(ccc(O[C@H]4CCCC[C@@H]4N4CC(c5ccccc5)C4)c3F)C2=O)C(=O)N1 (single isomer, unassigned) [Compound 65] | > 30 | 75.1 |
| O=C1CCC(N2Cc3cc(O[C@H]4CCCC[C@@H]4N4CC(c5ccc(N6CCOCC6)cc5)C4)ccc3C2=O)C(=O)N1 (stereo partly drawn) [Compound 124, 3-(5-(((1S,2S)-2-(3-(4-morpholinophenyl)azetidin-1-yl)cyclohexyl)oxy)-1-oxoisoindolin-2-yl)piperidine-2,6-dione] | > 30 | 70.2 |
| O=C1CCC(N2Cc3cc(O[C@H]4CCCC[C@@H]4N4CC(c5ccc(O)cc5)C4)ccc3C2=O)C(=O)N1 (stereo partly drawn) [Compound 132, 3-(5-(((1S,2S)-2-(3-(4-hydroxyphenyl)azetidin-1-yl)cyclohexyl)oxy)-1-oxoisoindolin-2-yl)piperidine-2,6-dione] | > 30 | 77.2 |
| O=C1CCC(N2Cc3cc(O[C@H]4CCCC[C@@H]4N4CC(c5cccc(OC(F)(F)F)c5)C4)ccc3C2=O)C(=O)N1 (stereo partly drawn) [Compound 35, 3-(1-oxo-5-(((1S,2S)-2-(3-(3-(trifluoromethoxy)phenyl)azetidin-1-yl)cyclohexyl)oxy)isoindolin-2-yl)piperidine-2,6-dione] | > 30 | 84.6 |
| N#Cc1cc(Cl)ccc1C1CN([C@@H]2CCCC[C@@H]2Oc2ccc3c(c2)CN(C2CCC(=O)NC2=O)C3=O)C1 (mixture of isomers) [Compound 100, Rac-5-chloro-2-(1-((cis)-2-((2-(2,6-dioxopiperidin-3-yl)-1-oxoisoindolin-5-yl)oxy)cyclohexyl)azetidin-3-yl)benzonitrile] | > 30 | <15 |
| O=C1CCC(N2Cc3c(ccc(O[C@H]4CCCC[C@@H]4N4CC(c5ccccc5)C4)c3F)C2=O)C(=O)N1 (single isomer, unassigned) [Compound 66] | > 30 | 74.8 |
| O=C1CCC(N2Cc3cc(O[C@H]4CCCC[C@@H]4N4CC(c5ccccc5OC(F)(F)F)C4)ccc3C2=O)C(=O)N1 (stereo partly drawn) [Compound 36, 3-(1-oxo-5-(((1S,2S)-2-(3-(2-(trifluoromethoxy)phenyl)azetidin-1-yl)cyclohexyl)oxy)isoindolin-2-yl)piperidine-2,6-dione] | > 30 | 82.3 |
| O=C1CCC(N2Cc3cc(O[C@H]4CCCC[C@@H]4N4CC(c5ccccc5)C4)c(F)cc3C2=O)C(=O)N1 (single isomer, unassigned) [Compound 52] | > 30 | 90.5 |
| O=C1CCC(N2Cc3cc(O[C@H]4CCCC[C@@H]4N4CC(c5cccc(F)c5)C4)ccc3C2=O)C(=O)N1 (stereo partly drawn) [Compound 111, 3-(5-(((1S,2S)-2-(3-(3-fluorophenyl)azetidin-1-yl)cyclohexyl)oxy)-1-oxoisoindolin-2-yl)piperidine-2,6-dione] | > 30 | 76.5 |

The next lines start with results.

| DC50 [1] [µM] | SMILES | IKZF2 % Degradation @ 1 μM [2] [%] |
| --- | --- | --- |
| > 30 | O=C1CCC(N2Cc3cc(O[C@H]4CCCC[C@@H]4N4CC(c5ccccc5C(F)(F)F)C4)ccc3C2=O)C(=O)N1 (stereo partly drawn) [Compound 129, 3-(1-oxo-5-(((1S,2S)-2-(3-(2-(trifluoromethyl)phenyl)azetidin-1-yl)cyclohexyl)oxy)isoindolin-2-yl)piperidine-2,6-dione] | 83.8 |
| > 30 | O=C1CCC(N2Cc3cc(O[C@H]4CCCC[C@@H]4N4CC(c5cccc(O)c5)C4)ccc3C2=O)C(=O)N1 (stereo partly drawn) [Compound 134, 3-(5-(((1S,2S)-2-(3-(3-hydroxyphenyl)azetidin-1-yl)cyclohexyl)oxy)-1-oxoisoindolin-2-yl)piperidine-2,6-dione] | 75 |
| > 30 | O=C(O)CC(O)(CC(=O)O)C(=O)O.O=C1CCC(N2Cc3cc(O[C@H]4CCCC[C@@H]4N4CC(c5ccccc5)C4)ccc3C2=O)C(=O)N1 (stereo partly drawn) [Compound 130, 3-(1-oxo-5-(((1S,2S)-2-(3-phenylazetidin-1-yl)cyclohexyl)oxy)isoindolin-2-yl)piperidine-2,6-dione 2-hydroxypropane-1,2,3-tricarboxylate] | 84.8 |
| > 30 | O=C1CC[C@@H](N2Cc3cc(O[C@H]4CCCC[C@@H]4N4CC(c5ccccc5)C4)ccc3C2=O)C(=O)N1 [Compound 125, (R)-3-(1-oxo-5-(((1S,2S)-2-(3-phenylazetidin-1-yl)cyclohexyl)oxy)isoindolin-2-yl)piperidine-2,6-dione] | 83.2 |
| > 30 | O=C1CCC(N2Cc3cc(O[C@H]4CCCC[C@@H]4N4CC(c5ccc(F)cc5)C4)ccc3C2=O)C(=O)N1 (single isomer, unassigned) [Compound 50] | 73.6 |
| > 30 | O=C1CCC(N2Cc3cc(O[C@H]4CCCC[C@@H]4N4CC(c5ccccc5O)C4)ccc3C2=O)C(=O)N1 (stereo partly drawn) [Compound 133, 3-(5-(((1S,2S)-2-(3-(2-hydroxyphenyl)azetidin-1-yl)cyclohexyl)oxy)-1-oxoisoindolin-2-1)piperidine-2,6-dione] | 56.4 |
